ChEMBL document CHEMBL5214925, “Dual-target inhibitors of indoleamine 2, 3 dioxygenase 1 (Ido1): A promising direction in cancer immunotherapy” (Eur J Med Chem, 2022)

Columns and labels:
[1] = Antiproliferative activity against melanoma cells (unknown origin) subcutaneously xenografted in mouse model assessed as inhibition of cell growth rate at 50 mg/kg relative to control; type: functional; conditions: sc
[2] = Antiproliferative activity against melanoma cells (unknown origin) subcutaneously xenografted in mouse model assessed as inhibition of cell growth rate at 100 mg/kg relative to control; type: functional; conditions: sc
[3] = target: T1, Indoleamine 2,3-dioxygenase 1 (Homo sapiens, UniProt P14902); assay: Inhibition of recombinant N-terminal His tagged IDO1 (unknown origin) expressed in Escherichia coli incubated for 1.5 hrs by FULOstar OMEGA plate reader method
Target sequence in this assay (P14902 whole entry): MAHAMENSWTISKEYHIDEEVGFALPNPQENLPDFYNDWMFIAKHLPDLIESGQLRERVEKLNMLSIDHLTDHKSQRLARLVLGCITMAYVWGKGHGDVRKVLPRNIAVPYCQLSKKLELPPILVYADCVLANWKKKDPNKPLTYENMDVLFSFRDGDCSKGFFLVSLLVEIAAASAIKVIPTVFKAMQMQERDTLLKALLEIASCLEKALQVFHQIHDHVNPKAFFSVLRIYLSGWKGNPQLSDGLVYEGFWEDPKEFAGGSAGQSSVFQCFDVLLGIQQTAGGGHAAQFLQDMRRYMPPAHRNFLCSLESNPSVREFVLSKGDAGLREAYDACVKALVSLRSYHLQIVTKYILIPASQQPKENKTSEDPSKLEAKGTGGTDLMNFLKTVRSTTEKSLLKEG

[4] = target: Tryptophan 2,3-dioxygenase (Homo sapiens, UniProt P48775); assay: Inhibition of recombinant C-terminal His tagged TDO (unknown origin) expressed in Escherichia coli
[5] = Antitumor activity against Lewis lung carcinoma cell in C57BL/6 mouse assessed as tumor growth inhibition at 60 mg/kg relative to control; type: functional; conditions: C57BL/6, Lewis lung carcinoma, read-out: TGI
[6] = test system: CT26; assay: Antitumor activity against mouse CT26 cells allografted in immunocompetent mouse assessed as tumor growth inhibition relative to control; type: functional
[7] = target: T1, Indoleamine 2,3-dioxygenase 1; assay: Inhibition of IDO1 (unknown origin) using L-tryptophan as substrate at 10 uM incubated for 10 mins relative to control
Target sequence in this assay (P14902 whole entry, looked up): as the sequence (P14902 whole entry) above

[8] = Clearance in Sprague-Dawley rat plasma; type: ADME, cell-free
[9] = Volume of distribution in Sprague-Dawley rat plasma; type: ADME, cell-free
[10] = test system: CT26; assay: Antitumor activity against mouse CT26 cells allografted in mouse assessed as tumor growth inhibition at 50 mg/kg; type: functional; conditions: read-out: TGI
[11] = target: T1, Indoleamine 2,3-dioxygenase 1; assay: Inhibition of IDO1 (unknown origin)
Target sequence in this assay (P14902 whole entry): as above

[12] = Antiproliferative activity against mouse Lewis lung carcinoma cell line; type: functional, cell-based
[13] = test system: CT26; assay: Antiproliferative activity against mouse CT26 cells; type: functional, cell-based
[14] = test system: HCT-116; assay: Antiproliferative activity against human HCT-116 cells; type: functional, cell-based
[15] = Antitumor activity against Lewis Lung carcinoma cells in mouse expressing IDO1 assessed as tumor growth inhibition relative to control; type: functional
[16] = target: T1, Indoleamine 2,3-dioxygenase 1; assay: Inhibition of IDO1 (unknown origin) using L-tryptophan as substrate incubated for 10 mins
Target sequence in this assay (P14902 whole entry): as above

[17] = target: Histone deacetylase 1 (Homo sapiens, UniProt Q13547); assay: Inhibition of HDAC1 (unknown origin) using […] as substrate preincubated for 15 mins followed by substrate addition measured after 60 mins
[18] = target: T1, Indoleamine 2,3-dioxygenase 1; assay: Inhibition of human recombinant IDO1 in human HeLa cells incubated for 48 hrs; type: cell-based
Target sequence in this assay (P14902 whole entry): as above

[19] = test system: HeLa; assay: Cytotoxicity against human HeLa cells; type: functional; conditions: read-out: LC50 (the source's name)
[20] = test system: CT26; assay: Cytotoxicity against […] cells by CCK-8 method; type: functional, cell-based; conditions: Mus musculus
[21] = test system: A549; assay: Cytotoxicity against human A549 cells by CCK-8 method; type: functional, cell-based
[22] = test system: HCT-116; assay: Cytotoxicity against human HCT-116 cells by CCK-8 method; type: functional, cell-based
[23] = test system: HT-29; assay: Cytotoxicity against human HT-29 cells by CCK-8 method; type: functional, cell-based
[24] = test system: CT26; assay: Antitumor activity against mouse CT26 cells allografted in nude mouse assessed as reduction in tumor volume relative to control; type: functional; parameters: scale not given: the % may be the effect or the level left
[25] = target: T1, Indoleamine 2,3-dioxygenase 1; assay: Inhibition of IDO1 in human HeLa cells; type: cell-based
Target sequence in this assay (P14902 whole entry): as above

[26] = target: T1, Indoleamine 2,3-dioxygenase 1; assay: Inhibition of human N-terminal His tagged recombinant IDO1 (5 to 403 residues) expressed in Escherichia coli BL21 (DE3)
Target sequence in this assay (P14902 whole entry): as above

[27] = Inhibition of rat liver TrxR incubated for 1 hr; type: tissue-based
[28] = Cytotoxicity against human colon epithelial cells incubated for 24 hrs by CCK-8 assay; type: functional, cell-based; conditions: Epithelial cell
[29] = test system: HCT-116; assay: Cytotoxicity against human HCT-116 incubated for 24 hrs by CCK-8 assay; type: functional, cell-based; conditions: HCT-116, 24 h
[30] = Inhibition of TrxR in human HCT-116 cell lysate; type: subcellular
[31] = target: T1, Indoleamine 2,3-dioxygenase 1; assay: Inhibition of IDO1 in human BT-549 cells; type: cell-based; conditions: pooled result: one value given for 2 cell lines, strains, targets or settings
[32] = target: T1, Indoleamine 2,3-dioxygenase 1; assay: Inhibition of IDO1 in human A-172 cells; type: cell-based
[33] = Antitumor activity against mouse LL2 cells allografted in mouse model over expressing IDO1 assessed as tumor growth inhibition relative to control; type: functional, Lewis lung carcinoma
[34] = Antitumor activity against mouse HEPA1-6 cells allografted in mouse model over expressing IDO1 assessed as tumor growth inhibition relative to control; type: functional
[35] = Antitumor activity against mouse HEPA1-6 cells allografted in mouse model over expressing TDO assessed as tumor growth inhibition relative to control; type: functional

Tryptophan 2,3-dioxygenase, sequence (P48775 whole entry): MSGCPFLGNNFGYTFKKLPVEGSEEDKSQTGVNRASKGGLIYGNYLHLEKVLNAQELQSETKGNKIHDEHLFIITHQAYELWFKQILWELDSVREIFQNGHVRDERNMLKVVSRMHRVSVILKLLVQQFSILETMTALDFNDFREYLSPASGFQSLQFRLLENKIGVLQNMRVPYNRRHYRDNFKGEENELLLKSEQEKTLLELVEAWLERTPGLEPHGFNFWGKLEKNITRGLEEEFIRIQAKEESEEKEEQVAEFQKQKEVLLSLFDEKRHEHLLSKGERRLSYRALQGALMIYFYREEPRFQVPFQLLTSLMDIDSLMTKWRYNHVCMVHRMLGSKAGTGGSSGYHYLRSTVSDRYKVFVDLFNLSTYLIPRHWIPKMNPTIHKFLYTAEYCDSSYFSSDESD
Histone deacetylase 1, sequence (Q13547 whole entry): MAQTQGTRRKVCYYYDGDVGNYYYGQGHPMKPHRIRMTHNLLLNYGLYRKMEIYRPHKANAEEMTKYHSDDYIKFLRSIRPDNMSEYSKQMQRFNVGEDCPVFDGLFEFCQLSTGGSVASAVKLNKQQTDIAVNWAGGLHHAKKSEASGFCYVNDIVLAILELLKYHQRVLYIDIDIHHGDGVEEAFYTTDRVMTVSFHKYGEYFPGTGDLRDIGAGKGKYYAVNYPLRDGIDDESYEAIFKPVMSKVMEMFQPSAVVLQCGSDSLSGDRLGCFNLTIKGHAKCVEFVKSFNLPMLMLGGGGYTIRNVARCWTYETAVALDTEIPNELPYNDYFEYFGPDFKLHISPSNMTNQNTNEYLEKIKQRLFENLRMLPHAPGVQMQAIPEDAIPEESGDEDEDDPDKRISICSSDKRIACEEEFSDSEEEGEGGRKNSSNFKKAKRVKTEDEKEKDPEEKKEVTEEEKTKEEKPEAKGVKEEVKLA

With `COc1cc(Nc2cc(NC(C)=O)cc3[nH]c(C(=O)O)cc23)cc(OC)c1OC` the inhibition in vivo at 50 mg/kg [1] was 43.2% and the inhibition in vivo at 100 mg/kg [2] was 44.7%.

`O[C@@H](c1cn2cncc2cc1Cl)C1CCCCC1` gave an IC50 [3] of 0.0096 µM and an IC50 [4] of 0.029 µM.

Work on `NS(=O)(=O)NCCNc1nonc1/C(=N/O)Nc1ccc(F)c(Br)c1` [EPACADOSTAT] yielded an inhibition in vivo at 60 mg/kg [5] of 68% and a TGI [6] of 47.5%.

`CC(C)=CCCc1c(C)ccc2c1C(=O)C(=O)C(C(C)C)=C2` gave an inhibition [7] of 85%.

`OCCOCc1cn(CCNc2nonc2/C(=N/O)Nc2ccc(F)c(Br)c2)nn1` showed a clearance [8] of 27.5 mL/min/kg, a Vd [9] of 0.88 L/kg and an inhibition in vivo at 50 mg/kg [10] of 69.7%.

Work on `NC(CC(=O)O)Cc1c[nH]c2ccc(N(CCCl)CCCl)cc12` (stereo unspecified) yielded an IC50 [11] of 14 µM, an IC50 [12] of 23.7 µM and an IC50 [13] of 23.7 µM. For the same compound, the IC50 [14] was 23.7 µM and the TGI [15] was 63.8%.

`Cn1cc(-c2ccc(NC(N)=O)cc2)c2ccc(F)cc21` showed an IC50 [3] of 0.049 µM and an IC50 [4] of 0.078 µM.

With `Cc1ccc2c(c1CCC(=O)NCCCCCC(=O)CNc1ccccc1N)C(=O)C(=O)C(C(C)C)=C2` the IC50 [16] was 0.73 µM and the IC50 [17] was 0.46 µM.

Work on `O=C(NCCNc1nonc1/C(=N/O)Nc1ccc(F)c(Br)c1)c1cccc(N(CCCl)CCCl)c1` yielded an EC50 [18] of 0.27 µM, a CC50 [19] of 39 µM and an IC50 [20] of 25 µM. For the same compound, the IC50 [21] was 17 µM, the IC50 [22] was 25 µM and the IC50 [23] was 19 µM. The TGI [6] was 58.2% and the Activity [24] was 28.6%.

`O=C1C=CCCN1C(=O)/C=C/c1ccccc1-c1c[nH]cn1` gave an EC50 [25] of 1.41 µM, an IC50 [26] of 0.084 µM and an IC50 [27] of 7.89 µM. The IC50 [28] was 42 µM, the IC50 [29] was 0.55 µM and the IC50 [30] was 4.22 µM.

For `Cc1ccc(C(=O)CC(=O)c2ccccc2OC(C)C)c(O)c1`, the IC50 [31] was 10.8 µM.

`CC1=C(CC(=O)c2sccc2Br)C(=O)c2ccccc2C1=O` showed an IC50 [32] of 37.7 µM.

Compound `COc1cc(/C=C/C(=O)N2CCC=CC2=O)cc(OC)c1OC` [PIPLARTINE] has an IC50 [28] of 46.9 µM and an IC50 [29] of 6.38 µM.

In the case of `NC(CC(=O)O)Cc1c[nH]c2cc(N(CCCl)CCCl)ccc12` (stereo unspecified), the IC50 [11] is reported as 227 µM, the IC50 [12] is reported as 63.9 µM and the IC50 [13] is reported as 63.9 µM. The IC50 [14] was 63.9 µM and the TGI [15] was 73.5%.

In the case of `O=C1c2cc(F)ccc2C(=O)c2c1nnn2-c1ccc(F)c(Cl)c1`, the TGI [33] is reported as 62.5%, the TGI [34] is reported as 80% and the TGI [35] is reported as 80%.

For `COc1ccccc1C(=O)CC(=O)c1ccc(C)cc1O`, the IC50 [31] was 20.6 µM.
